Measurements from publication PMC8997241, “Structurally Various Sorbicillinoids From an Endophytic Fungus Acremonium citrinum SS-g13” (Frontiers in Microbiology, 2022).
“Also recorded” adds a separate entry of the source.

Tested on: J774A.1 macrophages
Assay: Serum-mediated cholesterol efflux (BODIPY-cholesterol)
Type: cell-based
Settings: compounds 10 µM, 24 h, then serum 6 h; pioglitazone 3 µM positive control

C/C=C/C=C/C(O)=C1/C(=O)C(C)=C(O)[C@@]2(C)O[C@@]3(O)[C@@](C)(O)C(=O)C(C(=O)CC/C=C/C)=C(O)[C@@]3(C)[C@@H]12 [Compound 11, dihydrobisvertinolone]
cholesterol efflux enhancing activity: significant cholesterol efflux enhancing activity; also recorded: exhibited cholesterol efflux enhancing activity
